We go through 13 compounds from ChEMBL document CHEMBL1201862, “PubChem BioAssay data set” (2004).

Among the test systems are SNB-19; SK-MEL-5; UACC-257; SW-620; Malme-3M; HOP-92; LXFL 529; K562; UACC-62; M14; LOX IMVI; SR; SNB-75; OVCAR-8; OVCAR-5; NCI-H460; MDA-N; MCF7; BT-549; T47D.
What all share (experiment): DTP human tumour cell line panel, 48 h

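Step 1: Grow cells in 96-well plates. Step 2: Expose to compound for 48 hours at 5 concentrations. Step 3: Interpolate endpoints linearly; if unreached, use highest concentration. GI50 marks 50% less growth.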 Activity calls are given as the source filed them. No stated cut-off is given here; in the data, active = GI50 up to about 1.1 µM and inactive = higher.

Broadly, the GI50 is the concentration at which growth is held to half of that of the control.

Turning to `O=CN/C=C/c1ccccc1`, the GI50 with SNB-19 was > 100 µM (inactive); in the assay on SK-MEL-5, > 100 µM (inactive); in the assay on UACC-257, > 100 µM (inactive); in the assay with SW-620, > 51.2 µM (inactive); in the assay with Malme-3M it was > 100 µM (inactive); with HOP-92, > 100 µM (inactive). For the same compound, the GI50 was > 100 µM (inactive) in the assay with LXFL 529; > 31.6 µM (inactive) in the assay with K562; > 100 µM (inactive) with UACC-62; > 100 µM (inactive) with M14; > 100 µM (inactive) in the assay with LOX IMVI; > 94.8 µM (inactive) in the assay on SR. Also, the GI50 in the assay on SNB-75, in the assay on OVCAR-8, with OVCAR-5 and in the assay with NCI-H460 was > 100 µM (inactive) in each case.
For the compound `O=c1nc(-c2ccccc2)c2c3c(cccn13)CCC2`, the GI50 in the assay with SNB-19, in the assay on SK-MEL-5, in the assay on UACC-257, in the assay on SW-620, with Malme-3M and in the assay with HOP-92 was > 100 µM (inactive) throughout. In addition, the GI50 in the assay on LXFL 529, in the assay on K562, in the assay with UACC-62, in the assay on M14, with LOX IMVI and in the assay on SR was > 100 µM (inactive) in each case. Moreover, the GI50 with SNB-75 was 21.8 µM (inactive); in the assay on OVCAR-8, > 100 µM (inactive); in the assay on OVCAR-5, > 100 µM (inactive); in the assay with NCI-H460, > 100 µM (inactive).
Turning to `Cc1cccc(/C=N/N=C(\N)NO)n1`, the GI50 is 27.5 µM (inactive) in the assay on SK-MEL-5; > 100 µM (inactive) in the assay with UACC-257; 74.5 µM (inactive) with SW-620; > 100 µM (inactive) with Malme-3M; 26.1 µM (inactive) with HOP-92; 6.52 µM (inactive) in the assay on LXFL 529. For the same compound, the GI50 in the assay with K562 is 33.5 µM (inactive); in the assay on UACC-62, 2.12 µM (inactive); with M14, 41.5 µM (inactive); in the assay with LOX IMVI, 5.73 µM (inactive); in the assay with SR, 42.4 µM (inactive); in the assay with SNB-75 it was 20.5 µM (inactive). Moreover, the GI50 is 58.7 µM (inactive) with OVCAR-8 and 26.9 µM (inactive) with NCI-H460.
`CCC(C)CN1C(=O)NC(C)(Cc2ccccc2)C1=O` (configuration not stated): the GI50 with SNB-19, in the assay on SK-MEL-5, in the assay on UACC-257, with SW-620, with Malme-3M and with HOP-92 was > 100 µM (inactive) throughout. For the same compound, the GI50 in the assay on LXFL 529, with M14, in the assay on LOX IMVI, in the assay on SR, with SNB-75 and in the assay with OVCAR-8 was > 100 µM (inactive) throughout. The GI50 with OVCAR-5 and in the assay with NCI-H460 was > 100 µM (inactive) in each case.
On to `CC1=NN(C(=O)c2ccc([N+](=O)[O-])cc2)C(=O)C1/N=N/c1ccccc1C(=O)O` (configuration not stated), for which the GI50 with SNB-19 was > 100 µM (inactive); with SK-MEL-5, > 100 µM (inactive); with UACC-257 it was > 100 µM (inactive); with SW-620, > 100 µM (inactive); with Malme-3M, > 100 µM (inactive); in the assay with HOP-92, 45 µM (inactive). The GI50 in the assay with LXFL 529 is > 100 µM (inactive); in the assay on K562, 71.3 µM (inactive); in the assay on UACC-62, 45 µM (inactive); in the assay on SR, > 10 µM (inactive); with SNB-75, 51.2 µM (inactive); in the assay on OVCAR-8, > 100 µM (inactive). Besides, the GI50 with OVCAR-5 and with NCI-H460 was > 100 µM (inactive) throughout.
Regarding `O=C(O/N=C1/CCC/C1=C\c1ccccc1)c1ccc(Cl)cc1`, the GI50 with SNB-19 was > 100 µM (inactive); with SK-MEL-5 it was > 100 µM (inactive); with UACC-257 it was > 100 µM (inactive); in the assay with SW-620, > 100 µM (inactive); in the assay on Malme-3M, > 100 µM (inactive); in the assay on HOP-92 it was 64.3 µM (inactive). In addition, the GI50 in the assay with LXFL 529 is 47.4 µM (inactive); with K562, > 94.2 µM (inactive); in the assay with UACC-62, > 80.4 µM (inactive); in the assay on M14, > 100 µM (inactive); in the assay with LOX IMVI, > 100 µM (inactive); with SR it was > 82.4 µM (inactive). For the same compound, the GI50 was 21.7 µM (inactive) in the assay on SNB-75, > 71.6 µM (inactive) with OVCAR-8, > 100 µM (inactive) in the assay with OVCAR-5 and > 31.6 µM (inactive) in the assay on NCI-H460.
For `C/C=C1/CCC2c3[nH]c4ccccc4c3CCN2C1` (configuration not stated), the GI50 is > 100 µM (inactive) in the assay with SNB-19; 37.2 µM (inactive) in the assay on SK-MEL-5; 64.9 µM (inactive) in the assay on UACC-257; > 100 µM (inactive) in the assay with SW-620; 0.256 µM (active) in the assay with Malme-3M; 24.2 µM (inactive) in the assay with HOP-92. In addition, the GI50 in the assay on LXFL 529 is > 100 µM (inactive); in the assay with K562 it was 32 µM (inactive); in the assay with UACC-62, 60.8 µM (inactive); in the assay on M14, 14.4 µM (inactive); in the assay on SR it was > 100 µM (inactive); with SNB-75 it was 66.4 µM (inactive). Besides, the GI50 in the assay on OVCAR-8, in the assay on OVCAR-5 and in the assay with NCI-H460 was > 100 µM (inactive) each time.
As to `N=C(c1ccccc1)N(O)C1CCCCC1`, the GI50 in the assay with SNB-19 is > 100 µM (inactive); with SK-MEL-5, > 100 µM (inactive); with UACC-257, > 100 µM (inactive); in the assay with SW-620, > 100 µM (inactive); in the assay with Malme-3M, 9.38 µM (inactive); with HOP-92 it was > 100 µM (inactive). Besides, the GI50 in the assay on LXFL 529 was > 100 µM (inactive); in the assay with M14 it was > 100 µM (inactive); with LOX IMVI it was > 100 µM (inactive); in the assay with SR, > 100 µM (inactive); in the assay on SNB-75, 81.3 µM (inactive); with OVCAR-8, > 100 µM (inactive). For the same compound, the GI50 in the assay on OVCAR-5 and in the assay with NCI-H460 was > 100 µM (inactive) throughout.
Regarding `O=C(CC1(O)C(=O)Nc2ccccc21)c1ccc(O)cc1` (configuration not stated), the GI50 in the assay with SNB-19, with SK-MEL-5, with UACC-257, in the assay with SW-620, in the assay with Malme-3M and with HOP-92 was > 100 µM (inactive) each time. The GI50 in the assay on LXFL 529, in the assay on K562, with UACC-62, in the assay with M14, with LOX IMVI and with SR was > 100 µM (inactive) throughout. Also, the values for the GI50 with SNB-75, in the assay with OVCAR-5 and in the assay with NCI-H460 were 69 µM (inactive), > 100 µM (inactive) and > 100 µM (inactive), respectively.
As for `O=C1c2ccccc2C(=O)c2c1ccc1c3ccccc3n(-c3ccccc3)c21`, the GI50 was 75.5 µM (inactive) with SNB-19; 16.1 µM (inactive) with SK-MEL-5; 20.7 µM (inactive) with UACC-257; 15.8 µM (inactive) with SW-620; 28.7 µM (inactive) in the assay with Malme-3M; 4.84 µM (inactive) with HOP-92. The GI50 with LXFL 529 was 16.8 µM (inactive); with K562 it was 6.61 µM (inactive); with UACC-62, 14.7 µM (inactive); in the assay on M14, 12.4 µM (inactive); in the assay on LOX IMVI, 14.5 µM (inactive); with SR, 5.89 µM (inactive). The GI50 in the assay on SNB-75 is 18.3 µM (inactive); in the assay with MDA-N, 25 µM (inactive); with MCF7, 16 µM (inactive); in the assay with OVCAR-8, 27.2 µM (inactive); in the assay with BT-549 it was 25.7 µM (inactive); in the assay with T47D, 14.6 µM (inactive). Besides, the GI50 in the assay on OVCAR-5 is 27 µM (inactive); in the assay with NCI-H460, 27.2 µM (inactive).
With `O=[N+]([O-])c1nccn1COCCO`, the GI50 in the assay with SNB-19, with SK-MEL-5, in the assay with UACC-257, in the assay with SW-620, in the assay on Malme-3M and in the assay with HOP-92 was > 100 µM (inactive) throughout. Besides, the GI50 with LXFL 529, in the assay with M14, in the assay with LOX IMVI, in the assay on SR, in the assay with SNB-75 and in the assay with OVCAR-5 was > 100 µM (inactive) throughout. Further, the GI50 with NCI-H460 was > 100 µM (inactive).
`Cc1cccc(C(C)(C)C)c1NC(=O)CC1C(=O)Nc2ccccc2[S+]1[O-]` (configuration not stated): the GI50 in the assay on SNB-19 was 57.1 µM (inactive); with UACC-257, 61.9 µM (inactive); in the assay with SW-620, 36.7 µM (inactive); in the assay on Malme-3M, 54 µM (inactive); with HOP-92, 68.7 µM (inactive); with LXFL 529, 37.8 µM (inactive). The GI50 in the assay with K562 was 34.1 µM (inactive); in the assay with M14, 43.6 µM (inactive); with LOX IMVI it was 55.7 µM (inactive); in the assay with SR, 24.9 µM (inactive); in the assay with SNB-75, 54.2 µM (inactive); with OVCAR-8, 97.1 µM (inactive). The figures for the GI50 in the assay with OVCAR-5 and in the assay on NCI-H460 were > 100 µM (inactive) and 54.1 µM (inactive), respectively.
Consider `CCCCSC(=CC(=O)c1cccc(C(=O)C=C(SCCCC)SCCCC)n1)SCCCC`, for which the GI50 in the assay on SNB-19, in the assay on SK-MEL-5, in the assay with UACC-257, in the assay on SW-620, with Malme-3M and with HOP-92 was > 100 µM (inactive) throughout. Moreover, the GI50 with LXFL 529, with K562, in the assay on UACC-62, in the assay on M14, in the assay with LOX IMVI and in the assay on SR was > 100 µM (inactive) in each case. For the same compound, the GI50 in the assay with SNB-75 was 88.9 µM (inactive); with OVCAR-8 it was > 100 µM (inactive); in the assay on OVCAR-5, > 100 µM (inactive); with NCI-H460 it was > 100 µM (inactive).
